Data published in ChEMBL document CHEMBL1201862, “PubChem BioAssay data set” (2004).
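Five compound concentrations were applied to cells in 96-well plates for 48 hours; endpoints were derived by simple linear interpolation of the resulting dose-response curve. GI50 = concentration required for 50% inhibition of growth.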 Activity calls are given as the source filed them. Cut-off read from the data, not from the text of the source: active = GI50 up to about 1.1 µM and inactive = higher.

Columns and labels:
Test in all cases: growth of human tumour cells (NCI), 48 h
[1] = test system: Malme-3M
[2] = test system: OVCAR-4
[3] = test system: MDA-MB-231
[4] = test system: UO-31
[5] = test system: T47D
[6] = test system: NCI-H522
[7] = test system: ACHN
[8] = test system: EKVX
[9] = test system: COLO 205
[10] = test system: CCRF-CEM
[11] = test system: SK-OV-3
[12] = test system: A549
[13] = test system: OVCAR-8
[14] = test system: KM12
[15] = test system: K562
[16] = test system: LOX IMVI
[17] = test system: RPMI-8226
[18] = test system: UACC-62
[19] = test system: NCI-H23
[20] = test system: SK-MEL-2
[21] = test system: SNB-75
[22] = test system: HOP-62
[23] = test system: SN12C
[24] = test system: TK-10
[25] = test system: UACC-257
[26] = test system: MCF7
[27] = test system: 786-0
[28] = test system: SF-268
[29] = test system: SW-620
[30] = test system: HT-29
[31] = test system: Hs-578T
[32] = test system: HCT-15
[33] = test system: NCI-H226
[34] = test system: HOP-92
[35] = test system: IGROV-1
[36] = test system: OVCAR-5
[37] = test system: BT-549
[38] = test system: SF-539
[39] = test system: NCI/ADR-RES
[40] = test system: M14
[41] = test system: MOLT-4
[42] = test system: A498
[43] = test system: DU-145
[44] = test system: HCC 2998
[45] = test system: SK-MEL-28
[46] = test system: SNB-19
[47] = test system: SK-MEL-5
[48] = test system: U-251
[49] = test system: MDA-MB-435
[50] = test system: NCI-H460
[51] = test system: CAKI-1
[52] = test system: SF-295
[53] = test system: PC-3
[54] = test system: HCT-116
[55] = test system: OVCAR-3
[56] = test system: RXF 393
[57] = test system: MDA-N
[58] = test system: SR
[59] = test system: HL-60

Measured: GI50

Oc1cc(-c2ccc3ccccc3c2)nc2ncc(Cl)cc12
3.57 µM: [32]
inactive: [1] 4.05 µM | [2] 6.43 µM | [3] 15.6 µM | [4] 14.4 µM | [5] 18.8 µM | [6] 4.32 µM | [7] 4.9 µM | [8] 14.5 µM | [9] 3.81 µM | [10] 3.48 µM | [11] 4.73 µM | [12] 6.92 µM | [13] 6.15 µM | [14] 3.79 µM | [15] 3.23 µM | [16] 5.33 µM | [17] 2.99 µM | [18] 3.66 µM | [19] 7.14 µM | [20] 7.64 µM | [21] 1.98 µM | [22] 8.59 µM | [23] 9.06 µM | [24] 12.7 µM | [25] 9.06 µM | [26] 2.44 µM | [27] 2.84 µM | [28] 4.74 µM | [29] 4.12 µM | [30] 5.66 µM | [31] 5.27 µM | [33] 12 µM | [34] 5.31 µM | [35] 8.09 µM | [36] 64.9 µM | [37] 37.8 µM | [38] 5.62 µM | [39] 6.32 µM | [40] 8.17 µM | [41] 3.27 µM | [42] 12.1 µM | [43] 11.4 µM | [44] 10.2 µM | [45] 40.9 µM | [46] 9.31 µM

CCN(C(=O)N[C@@H](Cc1ccccc1)C(=O)N[C@@H](CC(C)C)C(=O)NC)c1ccccc1
inactive: [1] > 100 µM | [2] > 100 µM | [3] > 100 µM | [4] > 100 µM | [5] > 100 µM | [6] > 100 µM | [47] > 100 µM | [7] > 100 µM | [8] > 100 µM | [9] > 100 µM | [10] > 100 µM | [11] > 100 µM | [12] > 100 µM | [13] > 100 µM | [14] > 100 µM | [15] > 100 µM | [16] > 100 µM | [17] 77.1 µM | [18] > 100 µM | [19] > 100 µM | [20] > 100 µM | [21] 95.3 µM | [22] > 100 µM | [48] > 100 µM | [23] > 100 µM | [24] > 100 µM | [25] > 100 µM | [26] > 100 µM | [27] > 100 µM | [49] > 100 µM | [29] > 100 µM | [30] > 100 µM | [50] > 100 µM | [33] > 100 µM | [51] > 100 µM | [52] > 100 µM | [34] > 100 µM | [35] > 100 µM | [36] > 100 µM | [37] > 100 µM | [38] > 100 µM | [39] > 100 µM | [40] > 100 µM | [53] > 100 µM | [41] > 100 µM | [54] > 100 µM | [55] > 100 µM | [43] > 100 µM | [56] > 100 µM | [57] > 100 µM | [44] > 100 µM | [45] > 100 µM | [46] > 100 µM
> 100 µM: [32]

CN(C)S(=O)(=O)n1ccnc1
inactive: [1] > 100 µM | [2] > 100 µM | [3] > 100 µM | [4] > 100 µM | [5] > 100 µM | [6] > 100 µM | [47] > 100 µM | [7] > 100 µM | [8] > 100 µM | [9] > 100 µM | [11] > 100 µM | [12] > 100 µM | [14] > 100 µM | [15] > 100 µM | [16] > 100 µM | [17] > 100 µM | [19] > 100 µM | [20] > 100 µM | [21] > 100 µM | [22] > 100 µM | [48] > 100 µM | [23] > 100 µM | [24] > 100 µM | [25] > 100 µM | [26] > 100 µM | [27] > 100 µM | [28] > 100 µM | [49] > 100 µM | [29] > 100 µM | [50] > 100 µM | [33] > 100 µM | [51] > 100 µM | [52] > 100 µM | [34] > 100 µM | [35] > 100 µM | [36] > 100 µM | [37] > 100 µM | [38] > 100 µM | [39] > 100 µM | [40] > 100 µM | [53] > 100 µM | [41] > 100 µM | [42] > 100 µM | [54] > 100 µM | [55] > 100 µM | [56] > 100 µM | [57] > 100 µM | [44] > 100 µM | [45] > 100 µM | [46] > 100 µM
> 100 µM: [32]

CC(C)Sc1nncc(/C(N)=N/O)n1
inactive: [1] > 100 µM | [2] > 100 µM | [3] > 100 µM | [4] > 100 µM | [5] > 100 µM | [6] > 100 µM | [47] > 100 µM | [7] > 100 µM | [8] > 100 µM | [9] > 100 µM | [10] > 100 µM | [11] > 100 µM | [12] > 100 µM | [13] > 100 µM | [14] 88.5 µM | [15] > 100 µM | [16] > 100 µM | [17] > 100 µM | [18] > 100 µM | [19] > 100 µM | [21] > 100 µM | [22] > 100 µM | [48] > 100 µM | [23] > 100 µM | [58] > 100 µM | [24] > 100 µM | [25] > 100 µM | [26] > 100 µM | [27] > 100 µM | [28] > 100 µM | [49] > 100 µM | [29] > 100 µM | [30] > 100 µM | [50] > 100 µM | [33] > 100 µM | [51] > 100 µM | [52] > 100 µM | [34] 92 µM | [35] > 100 µM | [36] > 100 µM | [37] > 100 µM | [38] > 100 µM | [39] > 100 µM | [40] > 100 µM | [53] > 100 µM | [41] > 100 µM | [42] > 100 µM | [54] > 100 µM | [55] > 100 µM | [43] > 100 µM | [56] > 100 µM | [57] > 100 µM | [44] > 100 µM | [45] > 100 µM | [46] > 100 µM
> 100 µM: [32]

O=C(NN1C(=O)c2ccccc2C1=O)c1ccccc1Nc1ccccc1C(=O)NN1C(=O)c2ccccc2C1=O
> 100 µM: [32]
inactive: [1] > 100 µM | [2] > 100 µM | [3] > 100 µM | [4] > 100 µM | [6] > 100 µM | [47] > 100 µM | [7] > 100 µM | [8] > 100 µM | [9] > 100 µM | [10] > 100 µM | [59] > 100 µM | [13] > 100 µM | [14] > 100 µM | [15] > 100 µM | [16] > 100 µM | [17] 49.2 µM | [18] > 100 µM | [19] > 100 µM | [20] > 100 µM | [21] > 100 µM | [22] > 100 µM | [48] > 100 µM | [23] > 100 µM | [58] > 100 µM | [24] > 100 µM | [25] > 100 µM | [26] > 100 µM | [27] > 100 µM | [28] > 100 µM | [49] > 100 µM | [29] > 100 µM | [30] > 100 µM | [50] > 100 µM | [33] > 100 µM | [51] > 100 µM | [52] > 100 µM | [34] > 100 µM | [35] > 100 µM | [36] > 100 µM | [37] > 100 µM | [38] > 100 µM | [39] > 100 µM | [40] > 100 µM | [53] > 100 µM | [41] > 100 µM | [54] > 100 µM | [55] > 100 µM | [43] > 100 µM | [56] > 100 µM | [57] > 100 µM | [44] > 100 µM | [45] > 100 µM | [46] > 100 µM
